{"source": "the supplement of paper PMC11208160", "experiment": "recombinant barcode read abundance after kanamycin selection (control-corrected) (log10(CPM+1)); higher = more efficient recombination; sequences stand for … in AGTGCAGAGAAAATCGGCCAGTTTTCTCTGCCTGCAGTCCGCATGCCGT…AGATTTATGCAGCGGACTGCCTTTCTCCCAAAGTGATAAACCGGACAGTATCATGGACCGGTTTTCCCGGTAATCCGTATTTGCAAGGTTGGTTTCACT; site = the 11-nt target", "experimental": "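Pooled E. coli target-specificity screen for the IS621 bridge recombinase. Each library plasmid pairs an 11-nt target (CT core) with a bridge RNA whose target-binding loop (9-nt LTG + 4-nt RTG) is reprogrammed; the rest of the 177-nt WT IS621 bridge RNA scaffold is fixed. The plasmid is co-electroporated with a WT donor plasmid; recombinase is induced with 0.1 mM IPTG and recombinants are selected on kanamycin. Recombinant barcodes are sequenced, converted to CPM, averaged over two biological replicates and corrected by the unselected control CPM. Molecule = full bridge RNA written as DNA: LTG = specificity nt 1-9, RTG = reverse complement of specificity nt 8-11, in the WT scaffold.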", "data": [{"sequence": "ACAGAATCTTGGGTTCTAACCTGTTGCCT (site ACAGAATCTAG)", "values": [{"measurement": "recombinant barcode read abundance (log10)", "value": 1.69}]}, {"sequence": "ACAGAATCTTGGGTTCTAACCTGTTGCCT (site ACAGGATCTAA)", "values": [{"measurement": "recombinant barcode read abundance (log10)", "value": 0.0318}]}, {"sequence": "ACAGACGCTTGGGTTCTAACCTGTTGCCT (site ACAGACGCTAG)", "values": [{"measurement": "recombinant barcode read abundance (log10)", "value": 0.721}]}, {"sequence": "ACAGACGCTTGGGTTCTAACCTGTTGCCT (site ACAGCCGCTAG)", "values": [{"measurement": "recombinant barcode read abundance (log10)", "value": 0.151}]}, {"sequence": "ACAGACGCTTGGGTTCTAACCTGTTGCCT (site ACAGGCGCTAG)", "values": [{"measurement": "recombinant barcode read abundance (log10)", "value": 0.163}]}, {"sequence": "ACAGACGCTTGGGTTCTAACCTGTTGCCT (site ACAGTCGCTAG)", "values": [{"measurement": "recombinant barcode read abundance (log10)", "value": 0.0906}]}, {"sequence": "ACAGAGACTTGGGTTCTAACCTGTTGCTA (site ACAGAGACTGT)", "values": [{"measurement": "recombinant barcode read abundance (log10)", "value": 0.121}]}, {"sequence": "ACAGAGACTTGGGTTCTAACCTGTTGCTA (site ACAGAGACTTA)", "values": [{"measurement": "recombinant barcode read abundance (log10)", "value": 1.35}]}, {"sequence": "ACAGTAGCTTGGGTTCTAACCTGTTGCGG (site ACAGTAGCTCC)", "values": [{"measurement": "recombinant barcode read abundance (log10)", "value": 1.81}]}, {"sequence": "ACAGTAGCTTGGGTTCTAACCTGTTGCGG (site ACAGTAGCTCG)", "values": [{"measurement": "recombinant barcode read abundance (log10)", "value": 0.248}]}, {"sequence": "ACAGTGACTTGGGTTCTAACCTGTTGCCT (site ACAATGACTAG)", "values": [{"measurement": "recombinant barcode read abundance (log10)", "value": 1.23}]}, {"sequence": "ACAGTGACTTGGGTTCTAACCTGTTGCCT (site ACAGTGACTAG)", "values": [{"measurement": "recombinant barcode read abundance (log10)", "value": 2.49}]}, {"sequence": "ACAGTGGCTTGGGTTCTAACCTGTTGCGG (site ACAGTGGCTCC)", "values": [{"measurement": "recombinant barcode read abundance (log10)", "value": 1.53}]}, {"sequence": "ACAGTGGCTTGGGTTCTAACCTGTTGCGG (site CTTCGCCCTAA)", "values": [{"measurement": "recombinant barcode read abundance (log10)", "value": 0.0955}]}, {"sequence": "ACAGTGTCTTGGGTTCTAACCTGTTGCGG (site ACAATGTCTCC)", "values": [{"measurement": "recombinant barcode read abundance (log10)", "value": 1.37}]}, {"sequence": "ACAGTGTCTTGGGTTCTAACCTGTTGCGG (site ACACTGTCTCC)", "values": [{"measurement": "recombinant barcode read abundance (log10)", "value": 0.0611}]}, {"sequence": "ACAGTGTCTTGGGTTCTAACCTGTTGCGG (site ACAGTGTCTCC)", "values": [{"measurement": "recombinant barcode read abundance (log10)", "value": 2.77}]}, {"sequence": "ACAGTGTCTTGGGTTCTAACCTGTTGCGG (site ACATTGTCTCC)", "values": [{"measurement": "recombinant barcode read abundance (log10)", "value": 0.324}]}, {"sequence": "ACATAAGCTTGGGTTCTAACCTGTTGCTA (site ACATAAGCTTA)", "values": [{"measurement": "recombinant barcode read abundance (log10)", "value": 1.11}]}, {"sequence": "ACATAAGCTTGGGTTCTAACCTGTTGCTA (site GGCGGCTCTAG)", "values": [{"measurement": "recombinant barcode read abundance (log10)", "value": 0.18}]}, {"sequence": "ACATAGACTTGGGTTCTAACCTGTTGCGC (site ACAAAGACTGC)", "values": [{"measurement": "recombinant barcode read abundance (log10)", "value": 0.084}]}, {"sequence": "ACATAGACTTGGGTTCTAACCTGTTGCGC (site ACACAGACTGC)", "values": [{"measurement": "recombinant barcode read abundance (log10)", "value": 0.858}]}, {"sequence": "ACATAGACTTGGGTTCTAACCTGTTGCGC (site ACAGAGACTGC)", "values": [{"measurement": "recombinant barcode read abundance (log10)", "value": 0.168}]}, {"sequence": "ACATAGACTTGGGTTCTAACCTGTTGCGC (site ACATAGACTGC)", "values": [{"measurement": "recombinant barcode read abundance (log10)", "value": 1.35}]}, {"sequence": "ACATAGTCTTGGGTTCTAACCTGTTGCAG (site ACATAGTCTCT)", "values": [{"measurement": "recombinant barcode read abundance (log10)", "value": 1.01}]}, {"sequence": "ACATAGTCTTGGGTTCTAACCTGTTGCAG (site CCTTAGTCTCT)", "values": [{"measurement": "recombinant barcode read abundance (log10)", "value": 0.0322}]}, {"sequence": "ACATAGTCTTGGGTTCTAACCTGTTGCTG (site ACATAGTCTCA)", "values": [{"measurement": "recombinant barcode read abundance (log10)", "value": 0.71}]}, {"sequence": "ACATAGTCTTGGGTTCTAACCTGTTGCTG (site ACTTAGTCTTA)", "values": [{"measurement": "recombinant barcode read abundance (log10)", "value": 0.0401}]}, {"sequence": "ACATCTCCTTGGGTTCTAACCTGTTGCCT (site ACATCTCCTAG)", "values": [{"measurement": "recombinant barcode read abundance (log10)", "value": 0.503}]}, {"sequence": "ACATCTCCTTGGGTTCTAACCTGTTGCCT (site CCATCTCCTAG)", "values": [{"measurement": "recombinant barcode read abundance (log10)", "value": 0.239}]}, {"sequence": "ACATCTCCTTGGGTTCTAACCTGTTGCCT (site GCATCTCCTAG)", "values": [{"measurement": "recombinant barcode read abundance (log10)", "value": 0.0778}]}, {"sequence": "ACATCTCCTTGGGTTCTAACCTGTTGCCT (site TCATCTCCTAG)", "values": [{"measurement": "recombinant barcode read abundance (log10)", "value": 0.0426}]}, {"sequence": "ACATGATCTTGGGTTCTAACCTGTTGCCT (site ACAATATCTAG)", "values": [{"measurement": "recombinant barcode read abundance (log10)", "value": 0.0106}]}, {"sequence": "ACATGATCTTGGGTTCTAACCTGTTGCCT (site ACATGATCTAG)", "values": [{"measurement": "recombinant barcode read abundance (log10)", "value": 1.04}]}, {"sequence": "ACATTTCCTTGGGTTCTAACCTGTTGCCT (site AAATTTCCTAG)", "values": [{"measurement": "recombinant barcode read abundance (log10)", "value": 0.0832}]}, {"sequence": "ACATTTCCTTGGGTTCTAACCTGTTGCCT (site ACATTTCCTAG)", "values": [{"measurement": "recombinant barcode read abundance (log10)", "value": 0.1}]}, {"sequence": "ACATTTCCTTGGGTTCTAACCTGTTGCCT (site AGATTTCCTAG)", "values": [{"measurement": "recombinant barcode read abundance (log10)", "value": 0.138}]}, {"sequence": "ACATTTCCTTGGGTTCTAACCTGTTGCCT (site ATATTTCCTAG)", "values": [{"measurement": "recombinant barcode read abundance (log10)", "value": 0.58}]}, {"sequence": "ACCAGAGCTTGGGTTCTAACCTGTTGCCT (site ACAAGAGCTAG)", "values": [{"measurement": "recombinant barcode read abundance (log10)", "value": 0.131}]}, {"sequence": "ACCAGAGCTTGGGTTCTAACCTGTTGCCT (site ACCAGAGCTAG)", "values": [{"measurement": "recombinant barcode read abundance (log10)", "value": 0.823}]}, {"sequence": "ACCAGAGCTTGGGTTCTAACCTGTTGCCT (site ACGAGAGCTAG)", "values": [{"measurement": "recombinant barcode read abundance (log10)", "value": 0.0525}]}, {"sequence": "ACCAGAGCTTGGGTTCTAACCTGTTGCCT (site ACTAGAGCTAG)", "values": [{"measurement": "recombinant barcode read abundance (log10)", "value": 0.528}]}, {"sequence": "ACCAGGACTTGGGTTCTAACCTGTTGCCG (site ACCAGGACTCG)", "values": [{"measurement": "recombinant barcode read abundance (log10)", "value": 1.94}]}, {"sequence": "ACCAGGACTTGGGTTCTAACCTGTTGCCG (site GAGCCTCCTAT)", "values": [{"measurement": "recombinant barcode read abundance (log10)", "value": 0.091}]}, {"sequence": "ACCAGTACTTGGGTTCTAACCTGTTGCCT (site ACCAGTACTAG)", "values": [{"measurement": "recombinant barcode read abundance (log10)", "value": 0.0544}]}, {"sequence": "ACCAGTACTTGGGTTCTAACCTGTTGCCT (site ACCCGTACTAG)", "values": [{"measurement": "recombinant barcode read abundance (log10)", "value": 0.0724}]}, {"sequence": "ACCAGTACTTGGGTTCTAACCTGTTGCCT (site ACCGGTACTAG)", "values": [{"measurement": "recombinant barcode read abundance (log10)", "value": 0.0115}]}, {"sequence": "ACCAGTACTTGGGTTCTAACCTGTTGCCT (site ACCTGTACTAG)", "values": [{"measurement": "recombinant barcode read abundance (log10)", "value": 0.664}]}, {"sequence": "ACCATCACTTGGGTTCTAACCTGTTGCCT (site ACAAGCACTAG)", "values": [{"measurement": "recombinant barcode read abundance (log10)", "value": 0.103}]}, {"sequence": "ACCATCACTTGGGTTCTAACCTGTTGCCT (site ACCATCACTAG)", "values": [{"measurement": "recombinant barcode read abundance (log10)", "value": 0.79}]}, {"sequence": "ACCATGTCTTGGGTTCTAACCTGTTGCGG (site ACCATGTCTCC)", "values": [{"measurement": "recombinant barcode read abundance (log10)", "value": 1.96}]}, {"sequence": "ACCATGTCTTGGGTTCTAACCTGTTGCGG (site TAGTACACTGT)", "values": [{"measurement": "recombinant barcode read abundance (log10)", "value": 0.171}]}, {"sequence": "ACCCAAGCTTGGGTTCTAACCTGTTGCCT (site ACCCAAACTAG)", "values": [{"measurement": "recombinant barcode read abundance (log10)", "value": 1.14}]}, {"sequence": "ACCCAAGCTTGGGTTCTAACCTGTTGCCT (site ACCCAACCTAG)", "values": [{"measurement": "recombinant barcode read abundance (log10)", "value": 0.199}]}, {"sequence": "ACCCAAGCTTGGGTTCTAACCTGTTGCCT (site ACCCAAGCTAG)", "values": [{"measurement": "recombinant barcode read abundance (log10)", "value": 1.57}]}, {"sequence": "ACCCAAGCTTGGGTTCTAACCTGTTGCCT (site ACCCAATCTAG)", "values": [{"measurement": "recombinant barcode read abundance (log10)", "value": 0.196}]}, {"sequence": "ACCCAGCCTTGGGTTCTAACCTGTTGCGT (site ACCCAGCCTAA)", "values": [{"measurement": "recombinant barcode read abundance (log10)", "value": 0.534}]}, {"sequence": "ACCCAGCCTTGGGTTCTAACCTGTTGCGT (site ACCCAGCCTAC)", "values": [{"measurement": "recombinant barcode read abundance (log10)", "value": 3.25}]}, {"sequence": "ACCCAGCCTTGGGTTCTAACCTGTTGCGT (site ACCCAGCCTAG)", "values": [{"measurement": "recombinant barcode read abundance (log10)", "value": 0.316}]}]}
